Results on six compounds are retold here after patent publication US20100029612A1, “2-Aminoethyl Substituted Pyrimidin-2-Ones Cyclopropanes, Pyrazolines, Pyrimidines and Benzothiazepines and Their Uses as Urotensin II and Somatostatin 5 Receptor Ligands” (priority 2003, published 2010).

One series has as its target T1, UII receptor (Homo sapiens, UniProt Q9UKP6).
T1 construct: expressed in transfected cells; host or cells: NIH3T3 cells, receptor plasmid in PSI Mammalian Expression Vector (PROMEGA)
T1 sequence (Q9UKP6 1-389): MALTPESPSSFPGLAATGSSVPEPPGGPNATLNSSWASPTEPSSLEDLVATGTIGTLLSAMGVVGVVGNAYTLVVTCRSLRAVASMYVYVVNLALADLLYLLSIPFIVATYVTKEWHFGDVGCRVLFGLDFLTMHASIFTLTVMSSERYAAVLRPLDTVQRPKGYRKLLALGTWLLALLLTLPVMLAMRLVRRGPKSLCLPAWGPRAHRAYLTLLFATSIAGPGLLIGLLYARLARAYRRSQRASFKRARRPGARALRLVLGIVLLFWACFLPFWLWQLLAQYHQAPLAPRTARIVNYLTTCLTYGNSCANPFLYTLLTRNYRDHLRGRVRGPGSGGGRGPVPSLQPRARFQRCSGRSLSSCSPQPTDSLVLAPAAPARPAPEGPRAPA
In words: R-SAT functional mammalian cell-based agonist assay, UII receptor. The conditions noted are these: for selectivity UII versus SST5 receptor (in words): UII and SST5 receptors; for UII Eff.: agonist efficacy; for UII Eff. / UII pEC50 / EC50: transfected NIH3T3 cells; for UII pEC50 / EC50: agonist; for agonist activity at the UII receptor (in words): potency similar to AC-7954; for EC50: read-out: UII pEC50 (converted). As for the experimental part: (§1) The compounds I to VI were tested as agonist at the UII and SST5 receptors in the functional mammalian cell-based assay R-SAT, described in U.S. Pat. Nos. 5,707,798, 5,912,132, and 5,955,281.
(§2) R-SAT assays were performed using NIH3T3 cells grown in tissue culture treated rollerbottles to 40-50% confluence. Cells were transfected for 12-16 hours with plasmid DNAs using SUPERFECT (QIAGEN) as per manufacture's protocols. R-SAT's were generally performed with 10 μg/rollerbottle of receptor and 50 μg/rollerbottle of beta-galactosidase plasmid DNA. All receptor and G-protein constructs used were in the PSI Mammalian Expression Vector (PROMEGA). The transfected cells were then trypsinized and frozen in DMEM containing 10% DMSO. Frozen cells were later thawed, plated at 10,000-40,000 cells per well of a 96½ area plate that contained drug. Cells were then grown in a humidified atmosphere with 5% ambient CO2 for five days. Media was then removed from the plates and marker gene activity was measured by the addition of the beta-galactosidase substrate ONPG (in PBS with 5% NP-40). The resulting colorimetric reaction was measured in a spectrophotometric plate reader (Titertek Inc.) at […].

Series [1] is described as follows: Stability to oxidation by air during storage. Type of series: physicochemical. As for the experimental part:
A pyrazoline scaffold was prepared by the condensation of compound of formula VI of Example 1 with methylhydrazine in the presence of L-InCl3. […] The stereochemistry of the major isomer was confirmed as having an anti-configuration by the strong interaction between […] in the diethylamino chain and by the absence of any NOESY correlation between H4 (3.56 ppm) and H5 (3.98 ppm). […]

A further series has as its target T2, SST5 receptor (Homo sapiens, UniProt P35346).
T2 construct: expressed in transfected cells; host or cells: NIH3T3 cells, receptor plasmid in PSI Mammalian Expression Vector (PROMEGA)
In words: R-SAT functional mammalian cell-based agonist assay, SST5 receptor. The conditions noted are these: transfected NIH3T3 cells; for SST5 Eff.: agonist efficacy; for EC50: agonist, read-out: SST5 pEC50 (converted). The method, then:
as §1, §2

SMILES strings stand for the structures.

T2 sequence (P35346 whole entry): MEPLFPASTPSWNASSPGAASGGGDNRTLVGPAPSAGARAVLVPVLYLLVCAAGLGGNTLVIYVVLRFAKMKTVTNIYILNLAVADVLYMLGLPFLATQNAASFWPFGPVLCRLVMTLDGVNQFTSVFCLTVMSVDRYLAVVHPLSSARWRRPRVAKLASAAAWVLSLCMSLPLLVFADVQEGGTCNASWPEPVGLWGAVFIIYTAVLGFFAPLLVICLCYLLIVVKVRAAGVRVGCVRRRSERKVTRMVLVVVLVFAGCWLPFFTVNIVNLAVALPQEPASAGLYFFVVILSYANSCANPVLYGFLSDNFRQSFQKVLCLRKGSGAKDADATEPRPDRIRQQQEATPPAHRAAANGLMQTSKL

As to `CCN(CC)CCC1C(c2ccccc2)=NN(C)C1c1ccc(Cl)cc1` (mixture of isomers) [III, anti/syn-5-(4-Chloro-phenyl)-4-(2-diethylamino-ethyl)-1-methyl-3-phenyl-4,5-dihydro-1H-pyrazole], at UII receptor, the “selectivity UII versus SST5 receptor (in words)” value is “selective UII agonists”, the “UII Eff.” value stood at 31, the “UII pEC50” value was found to be 5.4 and the “agonist activity at the UII receptor (in words)” value (shortened to “agonist activity”) is on record as “partial to full agonists”. The “stability of the pyrazoline core to oxidation by air” value in series [1] is recorded as “stable to oxidation by air during storage”.
As for `CCN(CC)CCC(=Cc1ccc(Cl)cc1)C(=O)c1ccccc1` (mixture of isomers) [Starting material], at UII receptor, the “selectivity UII versus SST5 receptor (in words)” value was “activity at both the UII and SST5 receptors”; the “UII Eff.” value came out at 35; the EC50 is 1.58 µM; the “agonist activity” value was “partial to full agonists”. For the same compound, on SST5 receptor, the “SST5 Eff.” value came to 41 and the EC50 is 6.31 µM.
Take `CCN(CC)CC[C@@H]1C(c2ccccc2)=Nc2ccccc2S[C@H]1c1ccc(Cl)cc1` (relative stereo) [V, anti-2-(4-Chloro-phenyl)-3-(2-diethylamino-ethyl)-4-phenyl-2,3-dihydro-benzo-[b]-[1,4]-thiazepine]: at UII receptor, the “selectivity UII versus SST5 receptor (in words)” value was “activity at both the UII and SST5 receptors”; the “UII Eff.” value worked out at 92; the EC50 is 5.01 µM; the “agonist activity” value is “partial to full agonists”. Moreover, at SST5 receptor, the “SST5 Eff.” value stood at 60 and the EC50 was 10 µM.
`CN(C)CCC1(c2ccc(Cl)cc2)Cc2ccccc2C(=O)O1` (stereo not drawn) [AC-7954, reference compound]: at UII receptor, the “UII Eff.” value was found to be 120 and the “UII pEC50” value came to 5.7.
Take `CCN(CC)CCc1c(-c2ccccc2)nc(-c2ccccc2)nc1-c1ccc(Cl)cc1` [IV, 4-(4-Chloro-phenyl)-5-(2-diethylamino-ethyl)-2,6-diphenyl-pyrimidine]: the melting point was 90.5 to 92.3 °C.
Regarding `CCN(CC)CCC1=C(c2ccccc2)NC(=O)N(C)C1c1ccc(Cl)cc1` (stereo not drawn) [I], on UII receptor, the “selectivity UII versus SST5 receptor (in words)” value is “selective UII agonists”, the “UII Eff.” value was 68, the EC50 is 6.31 µM and the “agonist activity” value is “partial to full agonists”.
